{"source": "paper PMC7246999", "about": "(International Journal of Molecular Sciences, 2020)", "molecules": {"B1": {"name": "human mitochondrial pyruvate carrier 1 (hMPC-1), C-terminally tagged (natural protein, UniProt Q9Y5U8 1-109, looked up)", "chain": "MAGALVRKAADYVRSKDFRDYLMSTHFWGPVANWGLPIAAINDMKKSPEIISGRMTFALCCYSLTFMRFAYKVQPRNWLLFACHATNEVAQLIQGGRLIKHEMTKTASA", "notes": "human mitochondrial pyruvate carrier 1 (hMPC-1); Printed mass of His-hMPC-1: 15.9 kDa; also called His-hMPC-1; human MPC-1; source: Sf9 (baculovirus), purified in DDM (TALON IMAC, gel filtration); also co-expressed with hMPC-2 in Sf9 by co-infection; not shown: FLAG, C-terminal, kept; 10x His, C-terminal, kept"}}, "key": {"hMPC-1": {"molecular_target": "T1, hMPC-1 (Homo sapiens, UniProt Q9Y5U8)", "T1 construct": "HA tag (hemagglutinin, […]) (N); made in house; host or cells: Sf9 (Spodoptera frugiperda), baculovirus", "T1 sequence (Q9Y5U8 1-109)": "B1 chain", "assay": "Fluorescence quenching binding assay, purified hMPC-1 homo-complex", "conditions": "hMPC-1 in DDM micelles, room temperature, fluorescence at 338 nm, n = 3; read-out: Dissociation constant (Kd)", "procedure": "(§1) In vitro fluorescence quenching was performed to measure the binding affinity of the purified hMPCs to their ligands, such as the pyruvate substrate and inhibitors, to validate their function (Figure 4). First, the equilibrium dissociation constants (Kd) of the hMPCs to pyruvate substrates were measured (Figure 4A,D).\n(§2) A fluorescence analysis was performed using a LS55 spectrofluorophotometer at room temperature (Perkin Elmer, Waltham, MA, USA). The protein sample was prepared in buffer containing 50 mM Tris-HCl, 300 mM NaCl, and 0.05% DDM with a final concentration of 0.07 mg/ mL. […] Pyruvate was titrated to hMPC-1, hMPC-2, and hMPC-1/hMPC-2 up to 200mM concentrations. In the case of […], it was titrated to hMPC-1, hMPC-2, and hMPC-1/hMPC-2 up to 300uM, 200uM, 200uM concentrations, respectively. Pioglitazone was titrated to hMPC-1, hMPC-2, and hMPC-1/hMPC-2 up to 400uM, 500uM, and 400uM concentrations, respectively. All data were collected in the wavelength range of 270–450 nm (shown from 300 nm to 450 nm only) with a 1-min delay for each titration point. The dissociation constants were calculated by the maximum intensities in the 338 nm wavelength of each spectrum."}, "hMPC-2": {"molecular_target": "T2, hMPC-2 (Homo sapiens, UniProt O95563)", "T2 construct": "HA tag (hemagglutinin, […]) (N, cleaved yes); 10x His tag (N, cleaved yes); made in house; host or cells: Sf9 (Spodoptera frugiperda), baculovirus", "T2 sequence (O95563 1-127)": "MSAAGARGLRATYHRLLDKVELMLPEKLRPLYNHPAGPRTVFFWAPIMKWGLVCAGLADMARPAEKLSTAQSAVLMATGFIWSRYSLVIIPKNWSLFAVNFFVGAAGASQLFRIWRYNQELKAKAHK", "assay": "Fluorescence quenching binding assay, purified hMPC-2 homo-complex", "conditions": "hMPC-2 in DDM micelles, room temperature, fluorescence at 338 nm, n = 3; read-out: Dissociation constant (Kd)", "procedure": "as §1, §2"}, "hMPC-1/hMPC-2": {"molecular_target": "T3, hMPC-1/hMPC-2 (Homo sapiens, UniProt O95563+Q9Y5U8)", "T3 construct": "HA tag (hemagglutinin, […]) (N); HA tag (hemagglutinin, […]) (N, cleaved yes); 10x His tag (N, cleaved yes); made in house; host or cells: Sf9 (Spodoptera frugiperda), baculovirus; proteins purified singly, mixed 1:1, then FLAG-resin", "T3 sequence (Q9Y5U8 1-109)": "B1 chain", "T3 sequence (O95563 1-127)": "T2 sequence (O95563 1-127)", "assay": "Fluorescence quenching binding assay, purified hMPC-1/hMPC-2 hetero-complex", "conditions": "for Kd: hMPC-1/hMPC-2 in DDM micelles, room temperature, fluorescence at 338 nm, n = 3, read-out: Dissociation constant (Kd)", "procedure": "as §1, §2"}, "[1]": {"molecular_target": "the molecule itself", "assay": "SEC; analytical SEC, HiLoad 16/600 Superdex 200 pg, 50 mM Tris-HCl (pH 7), 300 mM NaCl, 0.05% (w/v) DDM, 1 mL/min; proteins run alone or mixed 1:1 (mass ratio) at room temperature for 1 h; fractions on SDS-PAGE"}}}
{"molecule": "CCc1ccc(CCOc2ccc(CC3SC(=O)NC3=O)cc2)nc1", "note": "(centres unmarked) [Pioglitazone]", "values": [{"measurement": "Kd", "setting": "hMPC-1", "value": "0.0841 ± 0.0103", "unit": "mM"}, {"measurement": "Kd", "setting": "hMPC-2", "value": "0.0993 ± 0.0145", "unit": "mM"}, {"measurement": "Kd", "setting": "hMPC-1/hMPC-2", "value": "0.0603 ± 0.00611", "unit": "mM"}]}
{"molecule": "CC(=O)C(=O)O", "note": "[Pyruvate]", "values": [{"measurement": "Kd", "setting": "hMPC-1", "value": "12 ± 0.77", "unit": "mM"}, {"measurement": "Kd", "setting": "hMPC-2", "value": "12.9 ± 0.9", "unit": "mM"}, {"measurement": "Binding affinity of hetero-complex relative to homo-complex", "setting": "hMPC-1/hMPC-2; hMPC-1/hMPC-2 hetero-complex higher than homo-complex", "value": 1.5, "unit": "fold"}, {"measurement": "Kd", "setting": "hMPC-1/hMPC-2", "value": "8.91 ± 1.09", "unit": "mM"}]}
{"molecule": "B1", "values": [{"measurement": "binding result", "setting": "[1]", "value": "binds"}]}
